Assays:
JAK1 = JAK1 (Homo sapiens (Human), UniProt P23458); test: Biochemical JAK1 kinase assay (LanthaScreen)
How it was run: (§1)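 GST-JAK + GFP-STAT1 peptide, HEPES pH 7.5/MgCl2/EGTA/Brij-35 buffer; cpd preincubation 1 h RT; ATP start, 1 h RT; stop with 10 mM EDTA + 2 nM Tb-anti-pSTAT1; TR-FRET 520/495. 4-parameter IC50 → pKi (Cheng-Prusoff).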

JAK3 = JAK3 (Homo sapiens (Human), UniProt P52333); test: Biochemical JAK3 kinase assay (LanthaScreen); details: for JAK3 (pKi)-JAK1 (pKi): selectivity JAK3 over JAK1, difference of pKi
Chain of JAK3 (P52333 whole entry): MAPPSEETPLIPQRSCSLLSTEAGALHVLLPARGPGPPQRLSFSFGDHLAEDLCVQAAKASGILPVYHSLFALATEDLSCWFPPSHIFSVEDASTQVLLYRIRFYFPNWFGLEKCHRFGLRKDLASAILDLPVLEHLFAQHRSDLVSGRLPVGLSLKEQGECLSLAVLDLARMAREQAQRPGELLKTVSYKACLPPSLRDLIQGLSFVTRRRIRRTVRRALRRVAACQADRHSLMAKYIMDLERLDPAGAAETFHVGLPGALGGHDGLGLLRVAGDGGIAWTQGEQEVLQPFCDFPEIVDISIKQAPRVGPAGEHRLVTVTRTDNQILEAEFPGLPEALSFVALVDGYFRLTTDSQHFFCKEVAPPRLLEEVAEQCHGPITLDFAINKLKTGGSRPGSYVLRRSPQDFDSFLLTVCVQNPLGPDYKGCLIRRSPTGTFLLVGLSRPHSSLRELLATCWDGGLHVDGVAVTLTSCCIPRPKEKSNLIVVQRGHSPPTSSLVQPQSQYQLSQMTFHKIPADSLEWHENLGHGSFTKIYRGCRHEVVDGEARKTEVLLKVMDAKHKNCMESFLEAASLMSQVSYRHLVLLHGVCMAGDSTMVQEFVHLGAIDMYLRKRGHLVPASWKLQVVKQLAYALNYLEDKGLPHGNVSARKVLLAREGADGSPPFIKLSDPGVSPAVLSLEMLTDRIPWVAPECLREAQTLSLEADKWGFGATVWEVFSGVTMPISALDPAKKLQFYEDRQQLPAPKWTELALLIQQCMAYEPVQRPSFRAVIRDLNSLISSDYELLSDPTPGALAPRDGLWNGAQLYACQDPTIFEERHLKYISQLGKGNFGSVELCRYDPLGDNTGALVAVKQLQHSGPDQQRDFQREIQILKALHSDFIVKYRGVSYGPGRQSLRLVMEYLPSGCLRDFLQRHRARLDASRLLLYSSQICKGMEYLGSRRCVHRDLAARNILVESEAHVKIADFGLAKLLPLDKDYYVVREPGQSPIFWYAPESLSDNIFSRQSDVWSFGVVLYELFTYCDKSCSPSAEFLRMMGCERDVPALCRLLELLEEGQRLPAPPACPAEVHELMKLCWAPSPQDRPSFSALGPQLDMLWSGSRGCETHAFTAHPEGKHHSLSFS
How it was run: as §1

Caco-2 cell monolayers = test: Caco-2 permeation assay; assay type: in vitro ADME; details: 5 μM, A-B direction, with Verapamil (25 μM)
How it was run: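 Passive A-to-B permeability with P-gp inhibited by verapamil (25 μM); compound at 5 μM, n=2. Both compartments sampled at t0 and t120 and quantified by LC-MS/MS, giving apparent permeability in cm/sec from flux, area and concentration.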

[1] = Colon and plasma mouse pharmacokinetics; assay type: in vivo; details: mouse, colon tissue / plasma; male Balb/c mice, 10 mg/kg PO; ratio of the colon AUC to the plasma AUC
Description: Assay 5: Colon and Plasma Mouse Pharmacokinetics
To 6 male Balb/c mice was administered 10 mg/kg of compound in 1% HPMC+0.1% Tween-80 by PO administration. At 0.5, 2 and 6 hours after dose administration, animals were anesthetized, and terminal blood samples were collected by cardiac puncture, followed by collection of colon contents and colon tissue.
Blood samples were collected into K2EDTA and stored on wet ice until processed to plasma by centrifugation (12000 rpm at 4° C.). Plasma samples were transferred to cluster tubes and placed on dry ice prior to freezer storage. The colon contents from each animal were collected at each terminal blood collection time point. The colon tissues were flushed with saline and patted dry. The colon and colon content tissues were homogenized using sterile water containing 0.1% formic acid 9:1 (water:tissue, v/w). The homogenized tissues and colon contents were transferred to cluster tubes and placed on dry ice prior to freezer storage. All samples were analyzed using LC/MS/MS against analytical standards.
The composite pharmacokinetic parameters of the compounds were determined by non-compartmental analysis using Phoenix WinNonlin Version 6 (Certara, St. Louis, Mo.) and using mean values from 2 animals/time point. For plasma concentrations below the quantification limit (BQL), the lowest concentration measurable or the BLOQ (below limit of quantification) was used.
A colon to plasma ratio was determined as the ratio of the colon AUC to the plasma AUC.

Tyk2 = Tyk2 (Homo sapiens (Human), UniProt P29597); test: Biochemical Tyk2 kinase assay (LanthaScreen)
Chain of Tyk2 (P29597 whole entry): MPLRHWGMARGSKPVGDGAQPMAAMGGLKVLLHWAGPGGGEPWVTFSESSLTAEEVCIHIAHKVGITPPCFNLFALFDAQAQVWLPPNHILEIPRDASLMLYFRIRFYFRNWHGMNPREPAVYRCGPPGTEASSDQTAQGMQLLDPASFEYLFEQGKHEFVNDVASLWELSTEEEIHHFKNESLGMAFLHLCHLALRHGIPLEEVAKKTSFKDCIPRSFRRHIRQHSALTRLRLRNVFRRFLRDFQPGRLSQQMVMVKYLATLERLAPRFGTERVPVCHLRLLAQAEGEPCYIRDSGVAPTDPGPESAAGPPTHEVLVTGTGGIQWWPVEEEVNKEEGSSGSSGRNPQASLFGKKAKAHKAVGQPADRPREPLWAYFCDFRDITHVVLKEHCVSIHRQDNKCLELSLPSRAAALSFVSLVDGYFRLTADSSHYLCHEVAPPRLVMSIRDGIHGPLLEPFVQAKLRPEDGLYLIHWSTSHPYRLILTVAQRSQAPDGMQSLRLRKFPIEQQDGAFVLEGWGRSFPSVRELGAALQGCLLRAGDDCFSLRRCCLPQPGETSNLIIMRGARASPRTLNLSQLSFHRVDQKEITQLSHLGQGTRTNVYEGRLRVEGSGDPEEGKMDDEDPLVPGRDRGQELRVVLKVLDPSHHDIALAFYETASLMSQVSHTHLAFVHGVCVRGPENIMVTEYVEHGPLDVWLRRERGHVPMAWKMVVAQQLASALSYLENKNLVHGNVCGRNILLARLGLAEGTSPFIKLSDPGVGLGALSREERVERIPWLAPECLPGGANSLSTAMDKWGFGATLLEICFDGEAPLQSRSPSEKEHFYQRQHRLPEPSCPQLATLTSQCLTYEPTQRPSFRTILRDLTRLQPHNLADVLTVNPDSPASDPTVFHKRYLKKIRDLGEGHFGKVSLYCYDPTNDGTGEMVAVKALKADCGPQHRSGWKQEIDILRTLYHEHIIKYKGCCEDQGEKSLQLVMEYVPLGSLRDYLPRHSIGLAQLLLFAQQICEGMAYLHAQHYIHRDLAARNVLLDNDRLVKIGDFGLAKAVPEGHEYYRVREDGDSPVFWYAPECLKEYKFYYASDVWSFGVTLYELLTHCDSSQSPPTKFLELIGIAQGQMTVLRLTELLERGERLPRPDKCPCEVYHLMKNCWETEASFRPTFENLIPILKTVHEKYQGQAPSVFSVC
How it was run: as §1

JAK2 = JAK2 (Homo sapiens (Human), UniProt O60674); test: Biochemical JAK2 kinase assay (LanthaScreen)
Chain of JAK2 (O60674 whole entry): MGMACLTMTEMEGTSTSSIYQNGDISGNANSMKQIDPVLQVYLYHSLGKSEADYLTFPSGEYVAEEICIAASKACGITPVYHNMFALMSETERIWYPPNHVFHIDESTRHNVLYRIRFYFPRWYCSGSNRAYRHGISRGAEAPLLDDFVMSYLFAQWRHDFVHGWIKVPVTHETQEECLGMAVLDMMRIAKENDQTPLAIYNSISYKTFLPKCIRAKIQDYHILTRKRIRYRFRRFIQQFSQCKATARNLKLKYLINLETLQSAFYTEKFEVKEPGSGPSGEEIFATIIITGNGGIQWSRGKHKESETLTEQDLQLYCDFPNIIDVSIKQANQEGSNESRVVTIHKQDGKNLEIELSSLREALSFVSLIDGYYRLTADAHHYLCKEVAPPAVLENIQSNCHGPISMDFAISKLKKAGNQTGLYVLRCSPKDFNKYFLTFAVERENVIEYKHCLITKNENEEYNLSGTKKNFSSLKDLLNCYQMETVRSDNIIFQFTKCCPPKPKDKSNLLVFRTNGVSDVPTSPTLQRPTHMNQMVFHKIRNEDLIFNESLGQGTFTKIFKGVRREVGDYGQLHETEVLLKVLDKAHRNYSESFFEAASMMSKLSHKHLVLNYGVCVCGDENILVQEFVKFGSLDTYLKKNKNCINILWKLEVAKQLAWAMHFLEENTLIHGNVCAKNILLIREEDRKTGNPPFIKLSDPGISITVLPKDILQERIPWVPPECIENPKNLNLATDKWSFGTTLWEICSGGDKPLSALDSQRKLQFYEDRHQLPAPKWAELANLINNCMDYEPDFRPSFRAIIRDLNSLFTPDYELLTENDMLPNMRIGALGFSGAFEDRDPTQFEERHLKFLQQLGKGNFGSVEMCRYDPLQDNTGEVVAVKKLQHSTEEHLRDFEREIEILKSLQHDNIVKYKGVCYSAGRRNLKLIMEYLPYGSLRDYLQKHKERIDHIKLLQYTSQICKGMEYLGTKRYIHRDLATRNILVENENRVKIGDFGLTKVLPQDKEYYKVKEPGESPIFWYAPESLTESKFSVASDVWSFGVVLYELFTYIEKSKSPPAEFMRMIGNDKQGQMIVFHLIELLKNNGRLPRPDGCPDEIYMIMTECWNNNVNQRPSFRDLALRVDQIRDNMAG
How it was run: as §1

[2] = system: IL-2 stimulated STAT5 phosphorylation in Tall-1 human T cell line (JAK3); test: Cellular JAK3 potency assay: inhibition of IL-2 stimulated pSTAT5 in Tall-1 T cells; assay type: cell-based; details: IL-2 stimulated pSTAT5, Tall-1 T cells
How it was run: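 AlphaLISA SureFire Ultra measures STAT5 Tyr694/699 phosphorylation in lysed Tall-1 human T cells. Cells were exposed to compound for 1 h at 37 °C before a 30 min IL-2 challenge (300 ng/ml final). Values are pIC50 means with standard deviation from signal-versus-concentration curves.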

Chain of JAK1 (P23458 whole entry): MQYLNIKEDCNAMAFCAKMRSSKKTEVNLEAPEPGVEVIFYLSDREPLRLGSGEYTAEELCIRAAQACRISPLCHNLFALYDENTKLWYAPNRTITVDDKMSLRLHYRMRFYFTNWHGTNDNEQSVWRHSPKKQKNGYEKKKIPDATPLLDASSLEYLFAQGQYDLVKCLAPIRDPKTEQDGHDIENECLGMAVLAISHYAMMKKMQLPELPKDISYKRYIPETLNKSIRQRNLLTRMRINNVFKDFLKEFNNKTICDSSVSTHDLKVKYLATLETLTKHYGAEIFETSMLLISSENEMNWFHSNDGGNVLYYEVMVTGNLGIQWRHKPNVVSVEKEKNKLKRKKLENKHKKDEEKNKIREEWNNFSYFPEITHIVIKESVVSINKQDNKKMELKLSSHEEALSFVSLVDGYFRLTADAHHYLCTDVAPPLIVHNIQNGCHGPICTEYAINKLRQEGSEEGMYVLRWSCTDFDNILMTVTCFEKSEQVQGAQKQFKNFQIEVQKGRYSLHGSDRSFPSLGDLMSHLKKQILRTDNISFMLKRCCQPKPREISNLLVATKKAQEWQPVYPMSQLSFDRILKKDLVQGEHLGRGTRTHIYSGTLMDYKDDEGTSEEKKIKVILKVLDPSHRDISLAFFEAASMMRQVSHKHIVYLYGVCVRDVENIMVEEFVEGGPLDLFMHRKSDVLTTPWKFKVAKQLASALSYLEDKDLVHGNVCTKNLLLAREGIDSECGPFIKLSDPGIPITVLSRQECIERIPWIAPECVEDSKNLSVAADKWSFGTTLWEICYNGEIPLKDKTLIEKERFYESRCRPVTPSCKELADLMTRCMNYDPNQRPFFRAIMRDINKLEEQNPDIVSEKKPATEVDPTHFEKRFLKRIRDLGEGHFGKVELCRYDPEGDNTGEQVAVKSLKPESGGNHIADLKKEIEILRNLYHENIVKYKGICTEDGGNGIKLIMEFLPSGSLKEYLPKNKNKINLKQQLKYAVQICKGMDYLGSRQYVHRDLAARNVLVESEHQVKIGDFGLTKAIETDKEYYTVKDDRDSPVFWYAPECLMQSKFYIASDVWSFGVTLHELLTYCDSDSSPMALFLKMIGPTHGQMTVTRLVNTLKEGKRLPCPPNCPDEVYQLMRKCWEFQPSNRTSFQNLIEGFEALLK

## C=CC(=O)N1CCN(CCn2c(=O)ccc3cnc(Nc4ccc(N5CCN(C(C)=O)CC5)cc4)nc32)CC1 [Example 79]
JAK1
  JAK 1 (pKi): E (E represents a pKi value of 7 or below (Ki of 100 nM or above))
JAK3
  JAK 3 (pKi): B (B represents pKi value between 9 and 10 (Ki between 1 nM and 0.1 nM))
  JAK3 (pKi)-JAK1 (pKi): A (A represents a value of 3 or above)
Caco-2 cell monolayers
  Caco Kp: A (A represents a value below 5×10^−6 cm/sec)
[1]
  Kp: > 1000
Tyk2
  Tyk 2 (pKi): E (E represents a pKi value of 7 or below (Ki of 100 nM or above))
JAK2
  JAK 2 (pKi): E (E represents a pKi value of 7 or below (Ki of 100 nM or above))
[2]
  Tall-1 (pIC50): B (B represents a pC50 value between 6.7 (included) and 7.5 (IC50 between 200 nM and 32 nM))

## C=CC(=O)N1CC(CCn2c(=O)ccc3cnc(Nc4ccc(N(CC)CC)cc4)nc32)C1 [Example 88]
JAK1
  JAK 1 (pKi): E (E represents a pKi value of 7 or below (Ki of 100 nM or above))
JAK3
  JAK 3 (pKi): A (A represents a pKi value≥10 (Ki≤0.1 nM))
  JAK3 (pKi)-JAK1 (pKi): A (A represents a value of 3 or above)
Caco-2 cell monolayers
  Caco Kp: D (D represents a value over 30×10^−6 cm/sec)
[1]
  Kp: > 14
Tyk2
  Tyk 2 (pKi): E (E represents a pKi value of 7 or below (Ki of 100 nM or above))
JAK2
  JAK 2 (pKi): E (E represents a pKi value of 7 or below (Ki of 100 nM or above))
[2]
  Tall-1 (pIC50): B (B represents a pC50 value between 6.7 (included) and 7.5 (IC50 between 200 nM and 32 nM))

## C=CC(=O)N1CC(CCn2c(=O)ccc3cnc(Nc4ccc(CCN(C)C)cc4)nc32)C1 [Example 89]
JAK1
  JAK 1 (pKi): E (E represents a pKi value of 7 or below (Ki of 100 nM or above))
JAK3
  JAK 3 (pKi): B (B represents pKi value between 9 and 10 (Ki between 1 nM and 0.1 nM))
  JAK3 (pKi)-JAK1 (pKi): A (A represents a value of 3 or above)
Caco-2 cell monolayers
  Caco Kp: A (A represents a value below 5×10^−6 cm/sec)
[1]
  Kp: > 100
Tyk2
  Tyk 2 (pKi): E (E represents a pKi value of 7 or below (Ki of 100 nM or above))
JAK2
  JAK 2 (pKi): E (E represents a pKi value of 7 or below (Ki of 100 nM or above))
[2]
  Tall-1 (pIC50): A (A represents a pIC50 value≥7.5 (IC50≤32 nM))

## C=CC(=O)N1CC(CCn2c(=O)ccc3cnc(Nc4ccc(N5CCN(C(=O)N(C)C)CC5)cc4)nc32)C1 [Example 92]
JAK1
  JAK 1 (pKi): E (E represents a pKi value of 7 or below (Ki of 100 nM or above))
JAK3
  JAK 3 (pKi): B (B represents pKi value between 9 and 10 (Ki between 1 nM and 0.1 nM))
  JAK3 (pKi)-JAK1 (pKi): A (A represents a value of 3 or above)
Caco-2 cell monolayers
  Caco Kp: A (A represents a value below 5×10^−6 cm/sec)
[1]
  Kp: > 100
Tyk2
  Tyk 2 (pKi): E (E represents a pKi value of 7 or below (Ki of 100 nM or above))
JAK2
  JAK 2 (pKi): E (E represents a pKi value of 7 or below (Ki of 100 nM or above))
[2]
  Tall-1 (pIC50): B (B represents a pC50 value between 6.7 (included) and 7.5 (IC50 between 200 nM and 32 nM))

## C=CC(=O)N1CC(CCn2c(=O)ccc3cnc(Nc4ccc(N5CCN(S(=O)(=O)C6COC6)CC5)cc4)nc32)C1 [Example 102]
JAK1
  JAK 1 (pKi): E (E represents a pKi value of 7 or below (Ki of 100 nM or above))
JAK3
  JAK 3 (pKi): A (A represents a pKi value≥10 (Ki≤0.1 nM))
  JAK3 (pKi)-JAK1 (pKi): A (A represents a value of 3 or above)
Caco-2 cell monolayers
  Caco Kp: A (A represents a value below 5×10^−6 cm/sec)
[1]
  Kp: > 1000
Tyk2
  Tyk 2 (pKi): E (E represents a pKi value of 7 or below (Ki of 100 nM or above))
JAK2
  JAK 2 (pKi): E (E represents a pKi value of 7 or below (Ki of 100 nM or above))
[2]
  Tall-1 (pIC50): B (B represents a pC50 value between 6.7 (included) and 7.5 (IC50 between 200 nM and 32 nM))

## C=CC(=O)N1CC(CCn2c(=O)ccc3cnc(Nc4cccc(N5CCN(C(=O)CSC)CC5)c4)nc32)C1 [Example 107]
JAK1
  JAK 1 (pKi): E (E represents a pKi value of 7 or below (Ki of 100 nM or above))
JAK3
  JAK 3 (pKi): B (B represents pKi value between 9 and 10 (Ki between 1 nM and 0.1 nM))
  JAK3 (pKi)-JAK1 (pKi): A (A represents a value of 3 or above)
Caco-2 cell monolayers
  Caco Kp: A (A represents a value below 5×10^−6 cm/sec)
[1]
  Kp: > 50
Tyk2
  Tyk 2 (pKi): E (E represents a pKi value of 7 or below (Ki of 100 nM or above))
JAK2
  JAK 2 (pKi): E (E represents a pKi value of 7 or below (Ki of 100 nM or above))
[2]
  Tall-1 (pIC50): B (B represents a pC50 value between 6.7 (included) and 7.5 (IC50 between 200 nM and 32 nM))

## C=CC(=O)N1CC(CCn2c(=O)ccc3cnc(Nc4cccc(CN5CCN(C(=O)CCSC)CC5)c4)nc32)C1 [Example 110]
JAK1
  JAK 1 (pKi): E (E represents a pKi value of 7 or below (Ki of 100 nM or above))
JAK3
  JAK 3 (pKi): A (A represents a pKi value≥10 (Ki≤0.1 nM))
  JAK3 (pKi)-JAK1 (pKi): A (A represents a value of 3 or above)
Caco-2 cell monolayers
  Caco Kp: B (B represents a value between 5×10^−6 and 10×10^−6 cm/sec)
[1]
  Kp: > 1000
Tyk2
  Tyk 2 (pKi): E (E represents a pKi value of 7 or below (Ki of 100 nM or above))
JAK2
  JAK 2 (pKi): E (E represents a pKi value of 7 or below (Ki of 100 nM or above))
[2]
  Tall-1 (pIC50): A (A represents a pIC50 value≥7.5 (IC50≤32 nM))

## C=CC(=O)N1CC(CCn2c(=O)ccc3cnc(Nc4cccc(CN5CCN(C(=O)COC)CC5)c4)nc32)C1 [Example 112]
JAK1
  JAK 1 (pKi): E (E represents a pKi value of 7 or below (Ki of 100 nM or above))
JAK3
  JAK 3 (pKi): A (A represents a pKi value≥10 (Ki≤0.1 nM))
  JAK3 (pKi)-JAK1 (pKi): A (A represents a value of 3 or above)
Caco-2 cell monolayers
  Caco Kp: A (A represents a value below 5×10^−6 cm/sec)
[1]
  Kp: > 100
Tyk2
  Tyk 2 (pKi): E (E represents a pKi value of 7 or below (Ki of 100 nM or above))
JAK2
  JAK 2 (pKi): E (E represents a pKi value of 7 or below (Ki of 100 nM or above))
[2]
  Tall-1 (pIC50): B (B represents a pC50 value between 6.7 (included) and 7.5 (IC50 between 200 nM and 32 nM))

## C=CC(=O)N1CC(CCn2c(=O)ccc3cnc(Nc4cccc(CN5CCN(C(C)=O)CC5)c4)nc32)C1 [Example 133]
JAK1
  JAK 1 (pKi): E (E represents a pKi value of 7 or below (Ki of 100 nM or above))
JAK3
  JAK 3 (pKi): A (A represents a pKi value≥10 (Ki≤0.1 nM))
  JAK3 (pKi)-JAK1 (pKi): A (A represents a value of 3 or above)
Caco-2 cell monolayers
  Caco Kp: A (A represents a value below 5×10^−6 cm/sec)
[1]
  Kp: > 100
Tyk2
  Tyk 2 (pKi): E (E represents a pKi value of 7 or below (Ki of 100 nM or above))
JAK2
  JAK 2 (pKi): E (E represents a pKi value of 7 or below (Ki of 100 nM or above))
[2]
  Tall-1 (pIC50): B (B represents a pC50 value between 6.7 (included) and 7.5 (IC50 between 200 nM and 32 nM))

## C=CC(=O)N1CC(CCn2c(=O)ccc3cnc(Nc4cccc(CN5CCN(C(=O)CSC)CC5)c4)nc32)C1 [Example 134]
JAK1
  JAK 1 (pKi): E (E represents a pKi value of 7 or below (Ki of 100 nM or above))
JAK3
  JAK 3 (pKi): A (A represents a pKi value≥10 (Ki≤0.1 nM))
  JAK3 (pKi)-JAK1 (pKi): A (A represents a value of 3 or above)
Caco-2 cell monolayers
  Caco Kp: A (A represents a value below 5×10^−6 cm/sec)
[1]
  Kp: > 100
Tyk2
  Tyk 2 (pKi): E (E represents a pKi value of 7 or below (Ki of 100 nM or above))
JAK2
  JAK 2 (pKi): E (E represents a pKi value of 7 or below (Ki of 100 nM or above))
[2]
  Tall-1 (pIC50): B (B represents a pC50 value between 6.7 (included) and 7.5 (IC50 between 200 nM and 32 nM))
